According to PubChem BioAssay (NCI):
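Results reflect a 48-hour exposure of cells in 96-well plates to compound at five concentrations. GI50 is the concentration that inhibits growth by half. TGI: total growth inhibition.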

How the values were obtained:
Test in all cases: NCI tumour cell line growth inhibition, 48 h
786-0 renal = tested on: 786-0 renal
A498 renal = tested on: A498 renal
A549 NSCLC = tested on: A549 NSCLC
ACHN renal = tested on: ACHN renal
BT-549 breast = tested on: BT-549 breast
CAKI-1 renal = tested on: CAKI-1 renal
COLO 205 colon = tested on: COLO 205 colon
DU-145 prostate = tested on: DU-145 prostate
EKVX NSCLC = tested on: EKVX NSCLC
HCC-2998 colon = tested on: HCC-2998 colon
HCT-116 colon = tested on: HCT-116 colon
HCT-15 colon = tested on: HCT-15 colon
HL-60(TB) leukemia = tested on: HL-60(TB) leukemia
HOP-62 NSCLC = tested on: HOP-62 NSCLC
HOP-92 NSCLC = tested on: HOP-92 NSCLC
HS 578T breast = tested on: HS 578T breast
IGROV1 ovarian = tested on: IGROV1 ovarian
K-562 leukemia = tested on: K-562 leukemia
KM12 colon = tested on: KM12 colon
LOX IMVI melanoma = tested on: LOX IMVI melanoma
M14 melanoma = tested on: M14 melanoma
MCF7 breast = tested on: MCF7 breast
MDA-MB-231 breast = tested on: MDA-MB-231 breast
MDA-MB-435 = tested on: MDA-MB-435
NCI-H23 lung = tested on: NCI-H23 lung
NCI-H460 lung = tested on: NCI-H460 lung
NCI-H522 lung = tested on: NCI-H522 lung
NCI/ADR-RES ovarian = tested on: NCI/ADR-RES ovarian
OVCAR-3 ovarian = tested on: OVCAR-3 ovarian
OVCAR-5 ovarian = tested on: OVCAR-5 ovarian
OVCAR-8 ovarian = tested on: OVCAR-8 ovarian
PC-3 prostate = tested on: PC-3 prostate
RPMI-8226 leukemia = tested on: RPMI-8226 leukemia
SF-268 CNS = tested on: SF-268 CNS
SF-295 CNS = tested on: SF-295 CNS
SF-539 CNS = tested on: SF-539 CNS
SK-MEL-2 melanoma = tested on: SK-MEL-2 melanoma
SK-MEL-28 melanoma = tested on: SK-MEL-28 melanoma
SK-MEL-5 melanoma = tested on: SK-MEL-5 melanoma
SK-OV-3 ovarian = tested on: SK-OV-3 ovarian
SN12C renal = tested on: SN12C renal
SNB-19 CNS = tested on: SNB-19 CNS
SR leukemia = tested on: SR leukemia
SW-620 colon = tested on: SW-620 colon
T-47D breast = tested on: T-47D breast
TK-10 renal = tested on: TK-10 renal
U251 CNS = tested on: U251 CNS
UACC-257 melanoma = tested on: UACC-257 melanoma
UACC-62 melanoma = tested on: UACC-62 melanoma
UO-31 renal = tested on: UO-31 renal

CCSc1nc(N)c(C#N)c(-c2ccc(OC)c(OC)c2)c1C#N
GI50 (786-0 renal): 15.7 µM | TGI (786-0 renal): 49.3 µM | GI50 (A498 renal): 15.8 µM | TGI (A498 renal): 40.7 µM | GI50 (A549 NSCLC): 17 µM | TGI (A549 NSCLC): > 50 µM | GI50 (ACHN renal): > 50 µM | TGI (ACHN renal): > 50 µM | GI50 (BT-549 breast): 39.5 µM | TGI (BT-549 breast): > 50 µM | GI50 (CAKI-1 renal): 16.6 µM | TGI (CAKI-1 renal): > 50 µM | GI50 (COLO 205 colon): 17.5 µM | TGI (COLO 205 colon): > 50 µM | GI50 (DU-145 prostate): 30.7 µM | TGI (DU-145 prostate): > 50 µM | GI50 (EKVX NSCLC): 32.2 µM | TGI (EKVX NSCLC): > 50 µM | GI50 (HCC-2998 colon): 37.9 µM | TGI (HCC-2998 colon): > 50 µM | GI50 (HCT-116 colon): 16.4 µM | TGI (HCT-116 colon): 47.5 µM | GI50 (HCT-15 colon): > 50 µM | TGI (HCT-15 colon): > 50 µM | GI50 (HL-60(TB) leukemia): 21.8 µM | TGI (HL-60(TB) leukemia): > 50 µM | GI50 (HOP-62 NSCLC): 18.4 µM | TGI (HOP-62 NSCLC): > 50 µM | GI50 (HOP-92 NSCLC): 6.49 µM | TGI (HOP-92 NSCLC): > 50 µM | GI50 (HS 578T breast): 13.1 µM | TGI (HS 578T breast): 43.7 µM | GI50 (IGROV1 ovarian): 5.85 µM | TGI (IGROV1 ovarian): 43.6 µM | GI50 (K-562 leukemia): 10.7 µM | TGI (K-562 leukemia): 27.7 µM | GI50 (KM12 colon): 15.2 µM | TGI (KM12 colon): > 50 µM | GI50 (LOX IMVI melanoma): 14.9 µM | TGI (LOX IMVI melanoma): 48.2 µM | GI50 (M14 melanoma): 18.7 µM | TGI (M14 melanoma): 45.7 µM | GI50 (MCF7 breast): 10.6 µM | TGI (MCF7 breast): > 50 µM | GI50 (MDA-MB-231 breast): 11.7 µM | TGI (MDA-MB-231 breast): 48.9 µM | GI50 (MDA-MB-435): 3.85 µM | TGI (MDA-MB-435): 22.5 µM | GI50 (NCI-H23 lung): 40.3 µM | TGI (NCI-H23 lung): > 50 µM | GI50 (NCI-H460 lung): 13.8 µM | TGI (NCI-H460 lung): 44.1 µM | GI50 (NCI-H522 lung): 10.2 µM | TGI (NCI-H522 lung): 35.2 µM | GI50 (NCI/ADR-RES ovarian): 21.9 µM | TGI (NCI/ADR-RES ovarian): > 50 µM | GI50 (OVCAR-3 ovarian): 26 µM | TGI (OVCAR-3 ovarian): > 50 µM | GI50 (OVCAR-5 ovarian): > 50 µM | TGI (OVCAR-5 ovarian): > 50 µM | GI50 (OVCAR-8 ovarian): 15.5 µM | TGI (OVCAR-8 ovarian): 45.1 µM | GI50 (PC-3 prostate): 10.4 µM | TGI (PC-3 prostate): > 50 µM | GI50 (RPMI-8226 leukemia): 14.8 µM | TGI (RPMI-8226 leukemia): > 50 µM | GI50 (SF-268 CNS): 11.1 µM | TGI (SF-268 CNS): 35.1 µM | GI50 (SF-295 CNS): 19.1 µM | TGI (SF-295 CNS): > 50 µM | GI50 (SF-539 CNS): 19 µM | TGI (SF-539 CNS): 40.3 µM | GI50 (SK-MEL-2 melanoma): 13.3 µM | TGI (SK-MEL-2 melanoma): > 50 µM | GI50 (SK-MEL-28 melanoma): > 50 µM | TGI (SK-MEL-28 melanoma): > 50 µM | GI50 (SK-MEL-5 melanoma): 8.36 µM | TGI (SK-MEL-5 melanoma): 29.5 µM | GI50 (SK-OV-3 ovarian): 15.4 µM | TGI (SK-OV-3 ovarian): > 50 µM | GI50 (SN12C renal): 15.1 µM | TGI (SN12C renal): > 50 µM | GI50 (SNB-19 CNS): 24.7 µM | TGI (SNB-19 CNS): > 50 µM | GI50 (SR leukemia): 11.8 µM | TGI (SR leukemia): 37.6 µM | GI50 (SW-620 colon): 25.4 µM | TGI (SW-620 colon): > 50 µM | GI50 (T-47D breast): > 50 µM | TGI (T-47D breast): > 50 µM | GI50 (TK-10 renal): 49.6 µM | TGI (TK-10 renal): > 50 µM | GI50 (U251 CNS): 17.6 µM | TGI (U251 CNS): > 50 µM | GI50 (UACC-257 melanoma): 9.13 µM | TGI (UACC-257 melanoma): > 50 µM | GI50 (UACC-62 melanoma): 8.65 µM | TGI (UACC-62 melanoma): 45.2 µM | GI50 (UO-31 renal): 15.9 µM | TGI (UO-31 renal): > 50 µM
